Assay results: patent publication US8895598B2, “Methods of treating a flaviviridae family viral infection, compositions for treating a flaviviridae family viral infection, and screening assays for identifying compositions for treating a flaviviridae family viral infection” (priority 2007, dated 2014)
“Also recorded” adds a separate entry of the source. Structures can show the parent of a compound that is named as a salt. Where two headings read alike, the source gives them in different places.

Key:
[1] = system: HCV RNA replication (full-length HCV RNA genome harboring a Luciferase reporter gene); experiment: Luciferase reporter-linked HCV replication assay in Huh7.5 cells; format: cell-based, Hepatitis C Virus; settings: for activity at 5 µM / activity at 10 µM: Hepatitis C virus, Huh7.5
Experimental: For example, HCV replication assays employing a luciferase reporter-linked HCV genome in the presence of various combinations of clemizole and an NS3 protease inhibitor (SCH503034) are shown in FIGS. 1A and 1B. In such assays, luciferase activity is directly proportional to HCV RNA genome replication. […] The results can be plotted on a linear or log scale as a function of drug concentrations to generate replication inhibition curves.
Luciferase assays were performed at 72 hr.
Medium was changed daily.
The experiment was repeated four times, each time with triplicates.

[2] = target: HuR binding to the consensus 4A RNA sequence (Homo sapiens, UniProt Q15717); experiment: Specificity: HuR binding to 4A RNA by microfluidics; settings: hits at 0.1 mM
Experimental: Next a standard 25 μL TNT T7 coupled wheat germ extract mixture (Promega) was prepared and spiked with 1 μL tRNALys-bodipy-fl (Promega) and 2 μL of plasmid DNA template coding for the appropriate protein (HuR, HuD or Gus). The mixture was immediately loaded into the device and flushed for 5 min, after which the chamber valves were opened allowing for dead end filling of the chambers with wheat germ extract. The chamber valves were again closed and flushing continued for an additional 5 min. Next the segregation valves separating each unit cell were closed, followed by opening of the chamber valves allowing for equilibration of the unit cell by diffusion. The entire device was heated to 30° C. on a temperature controlled microscope stage and incubated for up to 90 min to complete protein synthesis, binding of protein to the surface bound biotinylated-5-histidine antibody, solvation of target RNA, and equilibration of proteins and target RNA. […] Radial closure prevents solvent pockets from forming between the two interfaces and effectively creates zero dead volume while preserving the equilibrium concentrations of the molecular interactions to be detected. This was followed by a 5 min PBS wash to remove untapped unbound material. The device was then imaged on a modified array WoRxe (AppliedPrecision) microarray scanner to detect protein synthesis and the trapped molecules. […]

[3] = target: HuR binding to the 3′ terminus of the negative HCV RNA strand (Homo sapiens, UniProt Q15717); experiment: Specificity: HuR binding to the 3′ terminus of the negative HCV RNA strand; settings: hits at 0.1 mM
Experimental: Specificity of hits identified in the small molecule screen: To determine the specificity of the hits identified in the small molecule screen, the HuR protein (one of the human RNA binding protein used to validate our RNA binding assay) was selected. […] Binding of HuR to the consensus 4A RNA sequence was tested in the presence of the inhibitory molecules shown to inhibit RNA binding by NS4B. […] Similarly, 0.1 mM of the identified compounds didn't have an inhibitory effect on binding of HuR to the 3′ terminus of the negative HCV RNA strand.

[4] = human, in vivo; cited from earlier work
[5] = system: HCV (genotype 4); experiment: Treatment of patients chronically infected with HCV, serum HCV viral load; format: in vivo, human
Experimental: Three patients chronically-infected with HCV (genotype 4) were treated in accordance with an embodiment of the method of the invention. All were male and had baseline ALT elevations and significant HCV viral loads ranging from 290,000-730,000 IU/ml.
After the first four weeks of clemizole monotherapy, pegylated interferon was added.

[6] = guinea pig; cited from earlier work
[7] = target: T1, W55R NS4B mutant binding to HCV RNA (Hepatitis C virus genotype 1a, UniProt P27958, A1893V/D1840G/F1898S/L1839I/R1905H/S1900A/W1766R); experiment: Microfluidic in vitro RNA binding assay of W55R NS4B mutant; settings: in the presence of 10 nM clemizole
T1 construct: made in house; host or cells: coupled transcription/translation rabbit reticulocyte system (Promega) with canine microsomal membranes

[8] = system: R214Q mutant HCV RNA; experiment: Luciferase reporter linked replication assay with the clemizole-resistant R214Q mutant; format: cell-based; settings: Hepatitis C virus, read-out: EC50 on the R214Q mutant
[9] = system: infectious HCV clone (J6/JFH); format: cell-based, Hepatitis C Virus; settings: FIG. 15, 72 hours
[10] = system: W55R mutant J6/JFH RNA; experiment: Replication assays with the clemizole-resistant W55R mutant; format: cell-based, Hepatitis C Virus
[11] = target: NS4B binding to the 3′ terminus of the HCV negative strand RNA (Hepatitis C virus genotype 1a, UniProt P27958); experiment: Microfluidic (MITOMI) in vitro RNA binding assay of NS4B
[12] = cited from earlier work
[13] = system: Huh7.5 cells; experiment: Alamar Blue-based viability assay; settings: HCV-infected Huh7.5 cells, FIG. 15
Experimental: (§1) The in vivo antiviral effect on HCV RNA replication of the inhibitory compounds identified in the above screen was measured. Following electroporation with a full-length HCV RNA genome harboring a Luciferase reporter gene^28, Huh7.5 cells were grown in the presence of increasing concentrations of these compounds. Luciferase assays were performed at 72 hr. In parallel, the viability of cells in the presence of the compounds was assessed by an Alamar Blue-based assay.
(§2) Following 72 hrs of treatment, cells were incubated for 3 hrs at 37° C. in the presence of 10% Alamar Blue reagent (TREK Diagnostic Systems). Plates were then scanned and fluorescence was detected by using FLEXstation II 384 (Molecular Devices, Inc.).

[14] = Alamar Blue-based viability assay; settings: human
Experimental: as §1, §2

[15] = read-out: AV (HCV RNA replication, percent of normal activity remaining)
[16] = read-out: AV score (binned residual HCV replication)
[17] = 3 patients, clemizole 100 mg po BID monotherapy
[18] = 40 to 160 mg/day, 1 to 12 weeks

SMILES	activity at 5 µM [1, 15]	activity at 5 µM [1, 16]	activity at 10 µM [1, 15]	activity at 10 µM [1, 16]	further results
Cc1nc2cc(Cl)ccc2n1Cc1ccccc1	87%	60 to 90%	60%	60 to 90%	–
Cc1cc2ncn(Cc3ccc(Cl)cc3Cl)c2cc1C	30%	10 to 30%	8%	10 to 30%	–
Brc1ccc(Cn2cnc3ccccc32)cc1	23%	10 to 30%	8%	10 to 30%	–
Cc1nc2ccccc2n1Cc1ccc(Br)cc1	3%	10 to 30%	2%	10 to 30%	–
OCc1nc2ccccc2n1Cc1ccc(Br)cc1	–	30 to 60%	28%	10 to 30%	–
COC(=O)c1ccc(Cn2cnc3ccccc32)cc1	74%	60 to 90%	54%	30 to 60%	–
CC(C)(C)c1ccc(Cn2cnc3ccccc32)cc1	30%	10 to 30%	12%	10 to 30%	–
Cc1ccc(Cn2cnc3ccccc32)cc1	49%	30 to 60%	23%	10 to 30%	–
COc1ccc(Cn2cnc3ccccc32)cc1	70%	60 to 90%	58%	30 to 60%	–
O=C(O)C1=CC(=C(c2ccc(O)c(C(=O)O)c2)c2ccc(O)c(C(=O)O)c2)C=CC1=O [ATA, Aurintricarboxilic acid]	–	–	–	–	effect on binding of HuR to 4A RNA [2]: significantly inhibited; also recorded: affected; effect on binding of HuR to the 3′ terminus of the negative HCV RNA strand [3]: significantly inhibited
Clc1ccc(Cn2c(CN3CCCC3)nc3ccccc32)cc1 [Clemizole hydrochloride, clemizole hydrochloride, reference compound]	–	–	–	–	decrease in viral replication ([1]; 20 μM, 72 hr): tenfold
Clc1ccc(Cn2c(CN3CCCC3)nc3ccccc32)cc1 [clemizole]	–	–	–	–	drowsiness, share of the patients treated (Zierz and Greither) [4]: 1.3%; HCV viral load at week 2 [5, 17]: drops in HCV viral load; HCV viral load at week 4 [5, 17]: nearly at or below the limit of HCV detection; also recorded: completely, or nearly, undetectable; HCV viral load after 8 weeks ([5]; 4 weeks clemizole monotherapy plus 4 weeks clemizole with standard dose pegylated interferon): below the limit of detection; prevention of histamine-induced asthma [6]: superior to atropine and other antihistamines in preventing histamine-induced asthma; reduction of RNA binding of W55R NS4B mutant [7]: ~2 fold; effect on binding of HuR to 4A RNA [2]: No inhibitory effect; EC50 [8]: 40.3 µM; HCV replication levels by real-time PCR [9]: inhibits HCV replication; replication of W55R mutant in presence of clemizole ([10]; 10 μM clemizole, whole cell RNA (colonies) or in vitro-transcribed luciferase RNA): unaffected; EC50 ([10]; Hepatitis C virus, read-out: EC50 on the W55R mutant J6/JFH RNA): ~18 µM; IC50 [11]: ~0.024 µM; reduction of RNA binding of wild type NS4B ([11]; in the presence of 10 nM clemizole): ~2 fold; patients reporting excellent relief of itching [12, 18]: 66%; patients reporting good relief of itching [12, 18]: 23%; patients with mild side effects (drowsiness most common) ([12]; human, in vivo): 4 patients; effect of adding clemizole to NS3 protease inhibitor SCH503034 on HCV replication ([1]; SCH503034 1-5 micromolar, 72 hours): increase the inhibition of HCV replication in a dose-dependent manner by up to several logs; toxicity to the cell in real-time PCR experiment [13]: no measurable toxicity to the cell
Clc1ccc(Cn2c(CN3CCCC3)nc3ccccc32)cc1 [drawing 415]	62%	60 to 90%	37%	30 to 60%	viability at 72 h, 5 µM [14]: 107%; viability at 72 h, 10 µM [14]: 93%
